Each compound was assayed against HDM2 (truncated, residues 17 to 125, containing p53 binding surface) (Homo sapiens (Human), UniProt Q00987) (assay: HDM2 FRET assay (inhibition of binding of FITC labeled p53-site peptide to HDM2)). Details: Table 16.
Excerpt: IC50 DETERMINATIONS: Dose-response curves were plotted from the inhibition data, from 10 point serial dilutions of inhibitory compounds. Concentration of compound was plotted against em520/Cem495 ratio signal. To generate IC50 values, the dose-response curves were fitted to a standard sigmoidal curve and IC50 values were derived by nonlinear regression analysis.

Chain of HDM2 (truncated, residues 17 to 125, containing p53 binding surface) (Q00987 17-125): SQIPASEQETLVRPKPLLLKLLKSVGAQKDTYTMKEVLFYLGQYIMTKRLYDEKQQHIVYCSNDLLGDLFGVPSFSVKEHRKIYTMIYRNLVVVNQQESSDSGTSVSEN

SMILES | IC50
COC(C)(C)C1CCCN1c1nc2nc(-c3noc(=O)[nH]3)nc(-c3cncc(Cl)c3)c2n1C[C@H]1CC[C@H](C)CC1 (single isomer, unassigned) [Example 16.73, 3-{6-(5-chloropyridin-3-yl)-8-[2-(1-methoxy-1-methylethyl)pyrrolidin-1-yl]-7-[(trans-4-methylcyclohexyl)methyl]-7H-purin-2-yl}-1,2,4-oxadiazol-5(4H)-one] | 1.97 nM
C[C@H]1CC[C@H](Cn2c(N3CCOC4CCCCC43)nc3nc(-c4noc(=O)[nH]4)nc(-c4cccc(Cl)c4)c32)CC1 (single isomer, unassigned) [Example 16.77, 3-(6-(3-chlorophenyl)-7-[(trans-4-methylcyclohexyl)methyl]-8-(octahydro-4H-1,4-benzoxazin-4-yl)-7H-purin-2-yl]-1,2,4-oxadiazol-5(4H)-one] | 29.7 nM
C[C@H]1CC[C@H](Cn2c(N3CCOC4CCCCC43)nc3nc(-c4noc(=O)[nH]4)nc(-c4cccc(Cl)c4)c32)CC1 (single isomer, unassigned) [Example 16.78, 3-(6-(3-chlorophenyl)-7-[(trans-4-methylcyclohexyl)methyl]-8-(octahydro-4H-1,4-benzoxazin-4-yl)-7H-purin-2-yl]-1,2,4-oxadiazol-5(4H)-one] | 1.4 nM
C[C@H]1CC[C@H](Cn2c(N3CCCC4COCCC43)nc3nc(-c4noc(=O)[nH]4)nc(-c4cccc(Cl)c4)c32)CC1 (single isomer, unassigned) [Example 16.119, 3-{6-[3-chlorophenyl)-8-(hexahydro-2H-pyrano[4,3-b]pyridin-1(5H)-yl)-7-[(trans-4-methylcyclohexyl)methyl]-7H-purin-2-yl}-1,2,4-oxadiazol-5(4H)-one] | 60.9 nM
C[C@H]1CC[C@H](Cn2c(N3CCCC4COCCC43)nc3nc(-c4n[nH]c(=O)o4)nc(-c4cncc(Cl)c4)c32)CC1 (single isomer, unassigned) [Example 16.122, 5-{6-(5-chloropyridin-3-yl)-8-(hexahydro-2H-pyrano[4,3-b]pyridin-1(5H)-yl)-7-[(trans-4-methylcyclohexyl)methyl]-7H-purin-2-yl}-1,3,4-oxadiazol-2(3H)-one] | 203 nM
C[C@H]1CC[C@H](Cn2c(N3CCCC4COCCC43)nc3nc(-c4n[nH]c(=O)o4)nc(-c4cncc(Cl)c4)c32)CC1 (single isomer, unassigned) [Example 16.123, 5-{6-(5-chloropyridin-3-yl)-8-(hexahydro-2H-pyrano[4,3-b]pyridin-1(5H)-yl)-7-[(trans-4-methylcyclohexyl)methyl]-7H-purin-2-yl}-1,3,4-oxadiazol-2(3H)-one] | 59.1 nM
C[C@H]1CC[C@H](Cn2c(N3CCCC4COCCC43)nc3nc(-c4n[nH]c(=O)o4)nc(-c4cccc(Cl)c4)c32)CC1 (single isomer, unassigned) [Example 16.124, 5-{6-(3-chlorophenyl)-8-(hexahydro-2H-pyrano[4,3-b]pyridin-1(5H)-yl)-7-[(trans-4-methylcyclohexyl)methyl]-7H-purin-2-yl}-1,3,4-oxadiazol-2(3H)-one] | 263 nM
C[C@H]1CC[C@H](Cn2c(N3CCCC4COCCC43)nc3nc(-c4n[nH]c(=O)o4)nc(-c4cccc(Cl)c4)c32)CC1 (single isomer, unassigned) [Example 16.125, 5-{6-(3-chlorophenyl)-8-(hexahydro-2H-pyrano[4,3-b]pyridin-1(5H)-yl)-7-[(trans-4-methylcyclohexyl)methyl]-7H-purin-2-yl}-1,3,4-oxadiazol-2(3H)-one] | 56.7 nM

Same assay, conditions: Table 18

SMILES | IC50
CC([C@H]1CC[C@H](C)CC1)n1c(N2CCOC3CCCC32)nc2nc(-c3noc(=O)[nH]3)nc(-c3cccc(Cl)c3)c21 (single isomer, unassigned) [Example 18.37, 3-{6-(3-chlorophenyl)-8-(hexahydrocyclopenta[b][1,4]oxazin-4(4aH)-yl)-7-[1-(trans-4-methylcyclohexyl)ethyl]-7H-purin-2-yl}-1,2,4-oxadiazol-5(4H)-one] | 2.21 nM
CC([C@H]1CC[C@H](C)CC1)n1c(N2CCOC3CCCC32)nc2nc(-c3n[nH]c(=O)o3)nc(-c3cccc(Cl)c3)c21 (single isomer, unassigned) [Example 18.39, 5-{6-(3-chlorophenyl)-8-(hexahydrocyclopenta[b][1,4]oxazin-4(4aH)-yl)-7-[1-(trans-4-methylcyclohexyl)ethyl]-7H-purin-2-yl}-1,3,4-oxadiazol-2(3H)-one] | 3.73 nM
CC([C@H]1CC[C@H](C)CC1)n1c(N2CCOC3CCCC32)nc2nc(-c3noc(=O)[nH]3)nc(-c3cccc(Cl)c3)c21 (single isomer, unassigned) [Example 18.40, 3-{6-(3-chlorophenyl)-8-(hexahydrocyclopenta[b][1,4]oxazin-4(4aH)-yl)-7-[1-(trans-4-methylcyclohexyl)ethyl]-7H-purin-2-yl}-1,2,4-oxadiazol-5(4H)-one] | 7.86 nM
CC([C@H]1CC[C@H](C)CC1)n1c(N2CCOC3CCCC32)nc2nc(-c3n[nH]c(=O)o3)nc(-c3cccc(Cl)c3)c21 (single isomer, unassigned) [Example 18.43, 5-{6-(3-chlorophenyl)-8-(hexahydrocyclopenta[b][1,4]oxazin-4(4aH)-yl)-7-[1-(trans-4-methylcyclohexyl)ethyl]-7H-purin-2-yl}-1,3,4-oxadiazol-2(3H)-one] | 14 nM
CC([C@H]1CC[C@H](C)CC1)n1c(N2CCOC3CCCC32)nc2nc(-c3noc(=O)[nH]3)nc(-c3cncc(Cl)c3)c21 (single isomer, unassigned) [Example 18.52, 3-{6-(5-chloropyridin-3-yl)-8-(hexahydrocyclopenta[b][1,4]oxazin-4(4aH)-yl)-7-[1-(trans-4-methylcyclohexyl)ethyl]-7H-purin-2-yl}-1,2,4-oxadiazol-5(4H)-one] | 5.44 nM
CC([C@H]1CC[C@H](C)CC1)n1c(N2CCOC3CCCC32)nc2nc(-c3noc(=O)[nH]3)nc(-c3cncc(Cl)c3)c21 (single isomer, unassigned) [Example 18.53, 3-{6-(5-chloropyridin-3-yl)-8-(hexahydrocyclopenta[b][1,4]oxazin-4(4aH)-yl)-7-[1-(trans-4-methylcyclohexyl)ethyl]-7H-purin-2-yl}-1,2,4-oxadiazol-5(4H)-one] | 7.36 nM

Same assay, conditions: Table 23

SMILES | IC50
COc1ccccc1C(C)(F)c1nc2nc(-c3noc(=O)[nH]3)nc(-c3cncc(Cl)c3)c2n1C[C@H]1CC[C@H](C)CC1 (single isomer, unassigned) [Example 23.26, 3-{6-(5-chloropyridin-3-yl)-8-[1-fluoro-1-(2-methoxyphenyl)ethyl]-7-[(trans-4-methylcyclohexyl)methyl]-7H-purin-2-yl}-1,2,4-oxadiazol-5(4H)-one] | 5.37 nM
COc1ccccc1C(C)(F)c1nc2nc(-c3noc(=O)[nH]3)nc(-c3cncc(Cl)c3)c2n1C[C@H]1CC[C@H](C)CC1 (single isomer, unassigned) [Example 23.27, 3-{6-(5-chloropyridin-3-yl)-8-[1-fluoro-1-(2-methoxyphenyl)ethyl]-7-[(trans-4-methylcyclohexyl)methyl]-7H-purin-2-yl}-1,2,4-oxadiazol-5(4H)-one] | 1.62 nM
CC(F)(c1ccccn1)c1nc2nc(-c3noc(=O)[nH]3)nc(-c3cccc(Cl)c3)c2n1C[C@H]1CC[C@H](C)CC1 (single isomer, unassigned) [Example 23.30, 3-{6-(3-chlorophenyl)-8-(1-fluoro-1-pyridin-2-ylethyl)-7-[(trans-4-methylcyclohexyl)methyl]-7H-purin-2-yl}-1,2,4-oxadiazol-5(4H)-one] | 6.7 nM
CC(F)(c1ccccn1)c1nc2nc(-c3noc(=O)[nH]3)nc(-c3cccc(Cl)c3)c2n1C[C@H]1CC[C@H](C)CC1 (single isomer, unassigned) [Example 23.31, 3-{6-(3-chlorophenyl)-8-(1-fluoro-1-pyridin-2-ylethyl)-7-[(trans-4-methylcyclohexyl)methyl]-7H-purin-2-yl}-1,2,4-oxadiazol-5(4H)-one] | 3.73 nM
CC(F)(c1ccccc1F)c1nc2nc(-c3n[nH]c(=O)o3)nc(-c3cncc(Cl)c3)c2n1C[C@H]1CC[C@H](C)CC1 (single isomer, unassigned) [Example 23.32, 5-{6-(5-chloropyridin-3-yl)-8-[1-fluoro-1-(2-fluorophenyl)ethyl]-7-[(trans-4-methylcyclohexyl)methyl]-7H-purin-2-yl}-1,3,4-oxadiazol-2(3H)-one] | 16 nM
CC(F)(c1ccccc1F)c1nc2nc(-c3n[nH]c(=O)o3)nc(-c3cncc(Cl)c3)c2n1C[C@H]1CC[C@H](C)CC1 (single isomer, unassigned) [Example 23.33, 5-{6-(5-chloropyridin-3-yl)-8-[1-fluoro-1-(2-fluorophenyl)ethyl]-7-[{trans-4-methylcyclohexyl)methyl]-7H-purin-2-yl}-1,3,4-oxadiazol-2(3H)-one] | 0.453 nM
CC(F)(c1ccccc1F)c1nc2nc(-c3noc(=O)[nH]3)nc(-c3cncc(Cl)c3)c2n1C[C@H]1CC[C@H](C)CC1 (single isomer, unassigned) [Example 23.34, 3-{6-(5-chloropyridin-3-yl)-8-[1-fluoro-1-(2-fluorophenyl)ethyl]-7-[(trans-4-methylcyclohexyl)methyl]-7H-purin-2-yl}-1,2,4-oxadiazol-5(4H)-one] | 9.3 nM
CC(F)(c1ccccc1F)c1nc2nc(-c3noc(=O)[nH]3)nc(-c3cncc(Cl)c3)c2n1C[C@H]1CC[C@H](C)CC1 (single isomer, unassigned) [Example 23.35, 3-{6-(5-chloropyridin-3-yl)-8-[1-fluoro-1-(2-fluorophenyl)ethyl]-7-[(trans-4-methylcyclohexyl)methyl] 7H-purin-2-yl}-1,2,4-oxadiazol-5(4H)-one] | 0.424 nM
CC(F)(c1ccccn1)c1nc2nc(-c3n[nH]c(=O)o3)nc(-c3cccc(Cl)c3)c2n1C[C@H]1CC[C@H](C)CC1 (single isomer, unassigned) [Example 23.36, 5-{6-(3-chlorophenyl)-8-[1-fluoro-1-(pyridin-2-yl)ethyl]-7-[(trans-4-methylcyclohexyl)methyl]-7H-purin-2-yl}-1,3,4-oxadiazol-2(3H)-one] | 9.68 nM

Source: patent publication US9540377B2, “2,6,7,8 substituted purines as HDM2 inhibitors” (Merck Sharp & Dohme Corp., priority 2013, dated 2017)
